Assay results taken from patent US20260151518A1, “LEUKOCYTE-SPECIFIC CELL PENETRATING MOLECULES” (Amytrx Therapeutics, Inc., priority 2021, published 2026).

Tests used:
[1] = test system: Human whole blood (WB); test: Flow cytometry of human whole blood incubated with FITC-labelled peptide; assay type: cell-based
Method: It was originally believed that the SSHR on AMTX-100 could enter cells without a receptor, energy or endocytosis. However, in studies performed by the present inventors, an AMTX-100-related peptide with a double-null knockout for Importin α/Importin β complex and Importin β obtained by amino acid substitution and also containing a FITC molecule (FITC-SMTX-100), was incubated with human blood and analyzed by flow cytometry.
Because there appeared to be a concentration of radioactivity in organs with immune cells, a series of flow cytometry experiments was initiated with human blood. All cells were first stained with FITC-AMTX-100 and then incubated with immunotyping reagents that separated hematopoietic cells into broad categories of RBCs, granulocytes, monocytes, B- and T-lymphocytes, and NK cells. […] Again, a highly unexpected finding for a peptide which is “purported” to be a promiscuous, cell-penetrating, leader sequence.
Human whole blood (WB) was obtained from multiple normal donors and incubated with [FITC]-AMTX-100 at μg/mL quantities in repeat experiments ex vivo.
Panels of monoclonal antibodies labeled with fluorescent dyes were used to phenotypically identify [FITC]-AMTX-100 penetrated WB cells including classical monocytes, non-classical monocytes, neutrophils, basophils, eosinophils, and T- and B-lymphocytes and NK cells (FIG. 4A-B). […]

[2] = Pharmacokinetic study, AMTX-100 in plasma by LC-MS; assay type: in vivo; conditions: mice, sensitive to 2 ng/ml
[3] = test system: animal models of lung, liver, sepsis, and metabolic syndrome induced inflammation; conditions: intraperitoneal injections; cited from earlier work
[4] = Pharmacokinetics of [3H]-AMTX-100 after multiple routes of administration; assay type: in vivo, rat; conditions: rats, [3H]-AMTX-100
Method: AMTX-100 was radiolabeled with 3H at lysine residues and injected into Sprague-Dawley rats in a single dose by seven different routes (intravenous, subcutaneous, topical [skin], intratracheal, intraduodenal, esophageal, and oral). The rats were evaluated at various time points, up to 120 hours, by: a) blood samples were taken for pharmacokinetics (PK) by cardiac puncture; b) rats were frozen and sectioned for QWBA and/or micro-auto-radiography and histology; and c) frozen sections were made and freeze dried and exposed to phosphor-storage imaging plates and tissue radioactivity in images was quantified as tissue: blood ratios.
For all PK studies, the following definitions were used: WB=whole blood; Plasma=whole blood depleted of red blood cells; WBCD=whole blood depleted of white blood cells in which the whole blood is passed over a Pall Acrodisc filter (about 60% efficient); WBCs=the cells which bind to, and are washed off, the Pall Acrodisc filter.

CSCC[C@@H]1NC(=O)[C@H](CC(C)C)NC(=O)[C@H](CCCCN)NC(=O)[C@H](CCC(N)=O)CC(=O)[C@H](CCCNC(=N)N)NC(=O)[C@H](CCCCN)NC(=O)[C@H](CCCNC(=N)N)NC(=O)[C@H](CCC(N)=O)NC(=O)[C@H](C(C)C)NC(=O)[C@@H](NC(=O)[C@@H]2CCCN2C(=O)[C@H](C)NC(=O)[C@H](CC(C)C)NC(=O)[C@H](CC(C)C)NC(=O)[C@H](C)NC(=O)[C@H](CC(C)C)NC(=O)[C@H](CC(C)C)NC(=O)[C@@H](NC(=O)[C@H](C)NC(=O)[C@@H]2CCCN2C(=O)[C@H](CC(C)C)NC(=O)[C@H](CC(C)C)NC(=O)[C@H](C)NC(=O)[C@@H](NC(=O)[C@H](C)NC(=O)[C@H](C)N)C(C)C)C(C)C)CSSC[C@@H](C(=O)O)NC(=O)[C@@H]2CCCN2C1=O [AMTX-100]
Leukocyte populations targeted [1]: leukocytes (classical and non-classical monocytes, neutrophils, basophils and eosinophils)
Detection of AMTX-100 in plasma depleted of RBCs and WBCs [2]: not possible to detect
Efficacy in animal models of inflammation [3]: have shown efficacy
Partition of radiation in blood [4]: partitioned to the WBCs
